Experimental data taken from patent US20220000117A1, “METHOD FOR CONTROLLING DISEASES IN SMALL GRAIN CEREALS, SEED OF SMALL GRAIN CEREALS, AND METHOD FOR SUPPRESSING LODGING DAMAGE IN SMALL GRAIN CEREALS” (KUMIAI CHEMICAL INDUSTRY CO., LTD., priority 2019, published 2022).

Key:
powdery mildew = test: Test Example 9: control test of wheat powdery mildew, cup in greenhouse, inoculated, Norin No. 61 (Tables 10 to 14); assay type: in vivo, Blumeria graminis; parameters: key to Degree of Disease Occurrence: Σ(index×leaves)/(4×leaves investigated)×100; 0 = no disease, 100 = max
Description: (§1) Degree of Disease Occurrence=Σ(Index×Number of Leaves of Index)/(4×Number of Investigated Leaves)×100 (1)
Seed of wheat (variety: Norin No. 61) was used, and 100 ml of suspension waters each containing the compound shown in Table 10 at an amount shown in […] (synthesis was performed in accordance with a known method, a solution dissolved in DMSO or formulated 10% wettable powder was used) were prepared. The seed having a mass of 1 kg of wheat was mixed into the suspension water with a chemical treated amount shown in Table 10, and air-dried, and then, 5 seeds were sown in a plastic cup having a diameter of 6 cm containing river sand and managed in a greenhouse. In Comparative Examples, 20 ml of the suspension water of an active ingredient, which had been adjusted to have a concentration shown in Table 10, was sprayed in a frame of 45 cm×45 cm in which a pot of wheat seedlings was placed (corresponding to 1000 L/ha) 14 days after seeding. On day 14 after seeding, conidiospores of powdery mildew were sifted over leaves of wheat seedlings and inoculated onto the leaves (after the sprayed liquid was dried in the case of Comparative Examples), a lesion area ratio of powdery mildew in a first leaf was investigated 21 days after seeding according to the criteria in Table 1, and the degree of disease occurrence was calculated by the above calculation formula (1).

septoria leaf blotch = test: Test Example 10: control test of septoria leaf blotch of wheat, cup in greenhouse, inoculated, variety ARKEOS (Tables 15 to 19); assay type: in vivo, Septoria tritici
Description: as §1
Seed of wheat (variety: ARKEOS) was used, and 100 ml of suspension waters each containing the compound shown in Table 15 at an amount shown in Table 15 (synthesis was performed in accordance with a known method, a liquid dissolved in a small amount of DMSO or formulated 10% wettable powder was used) were prepared. Seed having a mass of 1 kg was mixed into the suspension water with a rate shown in Examples of Table 15, and air-dried, and then, 5 seeds were sown in a plastic cup having a diameter of 6 cm containing mixed soil of river sand and horticultural soil and managed in a greenhouse. In Comparative Examples, 20 ml of suspension water of an active ingredient, which had been adjusted to have a concentration shown in Table 15 to 19, was sprayed in a frame of 45 cm×45 cm in which a pot of wheat seedlings was placed (corresponding to 1000 L/ha) 14 days after seeding. On day 14 after seeding, a spore suspension in which conidiospores of septoria leaf blotch are suspended was sprayed and inoculated on leaves of wheat seedlings (after the sprayed liquid was dried in the case of Comparative Examples), a lesion area ratio of septoria leaf blotch in a second leaf was investigated approximately 35 days after seeding according to the criteria in Table 1, and the degree of disease occurrence was calculated by the above calculation formula (1).

[1] = Table 10 run, Foliage Treatment, spray 10 ppm (10 g/ha) day 14, first leaf, 21 days after seeding
[2] = Table 10 run, Foliage Treatment, spray 50 ppm (50 g/ha) day 14, first leaf, 21 days after seeding
[3] = Table 10 run, Foliage Treatment, spray 100 ppm (100 g/ha) day 14, first leaf, 21 days after seeding
[4] = Table 10 run, Seed Treatment 0.1 g/Seed 1 kg (10 g/ha), first leaf, 21 days after seeding
[5] = Table 10 run, Seed Treatment 0.5 g/Seed 1 kg (50 g/ha), first leaf, 21 days after seeding
[6] = Table 10 run, Seed Treatment 1 g/Seed 1 kg (100 g/ha), first leaf, 21 days after seeding
[7] = Table 11 run (different day), Foliage Treatment, spray 10 ppm (10 g/ha)
[8] = Table 11 run (different day), Foliage Treatment, spray 50 ppm (50 g/ha)
[9] = Table 11 run (different day), Seed Treatment 0.1 g/Seed 1 kg (10 g/ha)
[10] = Table 11 run (different day), Seed Treatment 0.5 g/Seed 1 kg (50 g/ha)
[11] = Table 13 run (different day), Foliage Treatment, spray 10 ppm (10 g/ha)
[12] = Table 13 run (different day), Foliage Treatment, spray 50 ppm (50 g/ha)
[13] = Table 13 run (different day), Seed Treatment 0.1 g/Seed 1 kg (10 g/ha)
[14] = Table 13 run (different day), Seed Treatment 0.5 g/Seed 1 kg (50 g/ha)
[15] = Table 13 run (different day), Foliage Treatment, spray 5 ppm (5 g/ha)
[16] = Table 13 run (different day), Seed Treatment 0.05 g/Seed 1 kg (5 g/ha)
[17] = Table 17, Foliage Treatment, spray 10 ppm suspension water (corresponding to 10 g/ha) 14 days after seeding, untreated 50.0
[18] = Table 17, Foliage Treatment, spray 10 ppm suspension water (corresponding to 10 g/ha) 14 days after seeding, untreated 100.0
[19] = Table 17, Foliage Treatment, spray 100 ppm suspension water (corresponding to 100 g/ha) 14 days after seeding, untreated 50.0
[20] = Table 17, Foliage Treatment, spray 100 ppm suspension water (corresponding to 100 g/ha) 14 days after seeding, untreated 100.0
[21] = Table 17, Seed Treatment, 0.1 g/Seed 1 kg (corresponding to 10 g/ha), untreated 50.0
[22] = Table 17, Seed Treatment, 0.1 g/Seed 1 kg (corresponding to 10 g/ha), untreated 100.0
[23] = Table 17, Seed Treatment, 1 g/Seed 1 kg (corresponding to 100 g/ha), untreated 50.0
[24] = Table 17, Seed Treatment, 1 g/Seed 1 kg (corresponding to 100 g/ha), untreated 100.0
[25] = Table 17, Foliage Treatment, spray 50 ppm suspension water (corresponding to 50 g/ha) 14 days after seeding, untreated 50.0
[26] = Table 17, Foliage Treatment, spray 50 ppm suspension water (corresponding to 50 g/ha) 14 days after seeding, untreated 100.0
[27] = Table 17, Seed Treatment, 0.5 g/Seed 1 kg (corresponding to 50 g/ha), untreated 50.0
[28] = Table 17, Seed Treatment, 0.5 g/Seed 1 kg (corresponding to 50 g/ha), untreated 100.0
[29] = Table 10 run, Foliage Treatment, spray 5 ppm (5 g/ha) day 14, first leaf, 21 days after seeding
[30] = Table 10 run, Seed Treatment 0.05 g/Seed 1 kg (5 g/ha), first leaf, 21 days after seeding

Compound | Degree of Disease Occurrence (powdery mildew; [8]) | Disease Leaf Rate (%) (powdery mildew; [8]) | Degree of Disease Occurrence (powdery mildew; [10]) | Disease Leaf Rate (%) (powdery mildew; [10]) | Degree of Disease Occurrence (powdery mildew; [11]) | Disease Leaf Rate (%) (powdery mildew; [11]) | Degree of Disease Occurrence (powdery mildew; [12]) | Disease Leaf Rate (%) (powdery mildew; [12]) | Degree of Disease Occurrence (powdery mildew; [13]) | Disease Leaf Rate (%) (powdery mildew; [13]) | Degree of Disease Occurrence (powdery mildew; [14]) | Disease Leaf Rate (%) (powdery mildew; [14]) | Degree of Disease Occurrence (septoria leaf blotch; [19]) | Disease Leaf Rate (%) (septoria leaf blotch; [20]) | Degree of Disease Occurrence (septoria leaf blotch; [23]) | Disease Leaf Rate (%) (septoria leaf blotch; [24]) | further results
N#Cc1snc(Cl)c1Cl [Compound (2)] |  |  |  |  |  |  |  |  |  |  |  |  |  |  |  |  | Degree of Disease Occurrence (powdery mildew; [1]): 59.4; Disease Leaf Rate (%) (powdery mildew; [1]): 100.0%; Degree of Disease Occurrence (powdery mildew; [2]): 56.3; Disease Leaf Rate (%) (powdery mildew; [2]): 100.0%; Degree of Disease Occurrence (powdery mildew; [3]): 47.9; Disease Leaf Rate (%) (powdery mildew; [3]): 95.8%; Degree of Disease Occurrence (powdery mildew; [4]): 45.9; Disease Leaf Rate (%) (powdery mildew; [4]): 100.0%; Degree of Disease Occurrence (powdery mildew; [5]): 41.0; Disease Leaf Rate (%) (powdery mildew; [5]): 93.8%; Degree of Disease Occurrence (powdery mildew; [6]): 28.9; Disease Leaf Rate (%) (powdery mildew; [6]): 87.5%; Degree of Disease Occurrence (septoria leaf blotch; Table 16, Foliage Treatment, spray 100 ppm suspension water (corresponding to 100 g/ha) 14 days after seeding, untreated 57.1): 51.0; Disease Leaf Rate (%) (septoria leaf blotch; Table 16, Foliage Treatment, spray 100 ppm suspension water (corresponding to 100 g/ha) 14 days after seeding, untreated 93.3): 100.0%; Degree of Disease Occurrence (septoria leaf blotch; Table 16, Seed Treatment, 1 g/Seed 1 kg (corresponding to 100 g/ha), untreated 57.1): 37.5; Disease Leaf Rate (%) (septoria leaf blotch; Table 16, Seed Treatment, 1 g/Seed 1 kg (corresponding to 100 g/ha), untreated 93.3): 81.3%
CC(=O)OCc1snc(Cl)c1Cl [Compound (4)] | 90.6 | 100% | 57.2 | 100% | 81.7 | 100.0% | 71.5 | 100.0% | 47.9 | 100.0% | 49.1 | 100.0% |  |  |  |  | Degree of Disease Occurrence (powdery mildew; [7]): 100.0; Disease Leaf Rate (%) (powdery mildew; [7]): 100%; Degree of Disease Occurrence (powdery mildew; [9]): 74.1; Disease Leaf Rate (%) (powdery mildew; [9]): 100%
O=C(OCc1snc(Cl)c1Cl)c1ccccc1 [Compound (5)] | 90.5 | 100% | 57.0 | 95% | 62.4 | 100.0% | 86.7 | 100.0% | 58.1 | 100.0% | 40.6 | 95.0% |  |  |  |  | Degree of Disease Occurrence (powdery mildew; [15]): 100.0; Disease Leaf Rate (%) (powdery mildew; [15]): 100.0%; Degree of Disease Occurrence (powdery mildew; [16]): 66.1; Disease Leaf Rate (%) (powdery mildew; [16]): 100.0%
COC(=O)c1snc(Cl)c1Cl [Compound (7)] | 94.8 | 100% | 78.8 | 100% |  |  | 77.1 | 100.0% |  |  | 61.3 | 100.0% | 50.0 | 93.3% | 19.4 | 77.5% | Degree of Disease Occurrence (septoria leaf blotch; [17]): 41.7; Disease Leaf Rate (%) (septoria leaf blotch; [18]): 100.0%; Degree of Disease Occurrence (septoria leaf blotch; [21]): 22.5; Disease Leaf Rate (%) (septoria leaf blotch; [22]): 68.8%
CCOC(=O)c1snc(Cl)c1Cl [Compound (8)] | 94.8 | 100% | 75.1 | 96.4% | 72.8 | 100.0% |  |  | 49.7 | 95.8% |  |  | 26.7 | 93.3% | 8.8 | 35.0% | Degree of Disease Occurrence (powdery mildew; [7]): 96.9; Disease Leaf Rate (%) (powdery mildew; [7]): 100%; Degree of Disease Occurrence (powdery mildew; [9]): 80.2; Disease Leaf Rate (%) (powdery mildew; [9]): 100%; Degree of Disease Occurrence (septoria leaf blotch; Table 17, Foliage Treatment, spray 5 ppm suspension water (corresponding to 5 g/ha) 14 days after seeding, untreated 50.0): 38.3; Disease Leaf Rate (%) (septoria leaf blotch; Table 17, Foliage Treatment, spray 5 ppm suspension water (corresponding to 5 g/ha) 14 days after seeding, untreated 100.0): 100.0%; Degree of Disease Occurrence (septoria leaf blotch; [25]): 31.7; Disease Leaf Rate (%) (septoria leaf blotch; [26]): 100.0%; Degree of Disease Occurrence (septoria leaf blotch; Table 17, Seed Treatment, 0.05 g/Seed 1 kg (corresponding to 5 g/ha), untreated 50.0): 23.8; Disease Leaf Rate (%) (septoria leaf blotch; Table 17, Seed Treatment, 0.05 g/Seed 1 kg (corresponding to 5 g/ha), untreated 100.0): 90.0%; Degree of Disease Occurrence (septoria leaf blotch; [27]): 10.3; Disease Leaf Rate (%) (septoria leaf blotch; [28]): 36.3%
NC(=O)c1snc(Cl)c1Cl [Compound (9)] |  |  |  |  |  |  |  |  |  |  |  |  |  |  |  |  | Degree of Disease Occurrence (powdery mildew; [29]): 57.3; Disease Leaf Rate (%) (powdery mildew; [29]): 100.0%; Degree of Disease Occurrence (powdery mildew; [1]): 63.5; Disease Leaf Rate (%) (powdery mildew; [1]): 100.0%; Degree of Disease Occurrence (powdery mildew; [30]): 38.3; Disease Leaf Rate (%) (powdery mildew; [30]): 96.9%; Degree of Disease Occurrence (powdery mildew; [4]): 33.0; Disease Leaf Rate (%) (powdery mildew; [4]): 83.9%
COC(=N)c1snc(Cl)c1Cl [Compound (11)] | 97.9 | 100% | 79.7 | 100% | 72.6 | 98.4% | 67.6 | 99.6% | 50.1 | 95.0% | 40.8 | 100.0% | 41.7 | 100.0% | 26.5 | 67.5% | Degree of Disease Occurrence (septoria leaf blotch; [17]): 31.7; Disease Leaf Rate (%) (septoria leaf blotch; [18]): 93.3%; Degree of Disease Occurrence (septoria leaf blotch; [25]): 35.0; Disease Leaf Rate (%) (septoria leaf blotch; [26]): 100.0%; Degree of Disease Occurrence (septoria leaf blotch; [21]): 22.5; Disease Leaf Rate (%) (septoria leaf blotch; [22]): 80.0%; Degree of Disease Occurrence (septoria leaf blotch; [27]): 18.8; Disease Leaf Rate (%) (septoria leaf blotch; [28]): 63.8%
